Earlier results as cited in PMC4333608 (Chemical Science, 2014).

Target: T1, São Paulo metallo-β-lactamase-1 (SPM-1) (Pseudomonas aeruginosa, UniProt Q8G9Q0)
T1 sequence (Q8G9Q0 29-276): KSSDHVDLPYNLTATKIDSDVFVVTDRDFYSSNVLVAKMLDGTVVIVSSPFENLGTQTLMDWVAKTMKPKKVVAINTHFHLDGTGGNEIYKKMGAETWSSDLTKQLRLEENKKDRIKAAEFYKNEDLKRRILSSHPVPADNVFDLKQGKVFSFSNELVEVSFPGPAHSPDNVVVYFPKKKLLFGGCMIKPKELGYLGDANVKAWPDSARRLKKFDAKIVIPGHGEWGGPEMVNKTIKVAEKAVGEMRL
Assay: enzyme inhibition IC50
Type: biochemical

O=C(O)c1cc(CS)cc(CS)c1 [3,5-bis(mercaptomethyl)benzoic acid]
IC50: 700 nM
